Assays:
native rat liver AMPK = native rat liver AMPK (Rattus norvegicus, UniProt P80386); experiment: AMPK kinase assay (SAMS peptide), native rat liver AMPK in solution; type: biochemical; details: oligosaccharides; read-out: IC50 / half-maximal effect, inhibition of AMPK
Experimental: We next tested the effect of glycogen on the activity of the native AMPK complex purified from rat liver ([Hawley et al., 1996]). […] The bovine liver glycogen inhibited AMPK completely with an IC50 (concentration causing half-maximal inhibition) of 30 ± 9 mM glucose equivalents (Figure 2A).
Figure 2 Allosteric Inhibition of AMPK by Different Glycogen Preparations (A) Concentration dependence of inhibition of native rat liver AMPK by preparations of bovine and rat liver glycogen; glycogen concentrations expressed as glucose produced after total hydrolysis. Data were fitted to an IC50 equation (see Supplemental Experimental Procedures), and curves were generated using the estimated best-fit parameters. (B) Concentration dependence of inhibition of native rat liver AMPK by bovine liver glycogen in the presence and absence of 200 μM AMP; curves were generated as in (A). (C) Inhibition by bovine liver glycogen of recombinant AMPK complex (myc-α1:β1:γ1) containing full-length (1–270) or truncated β1 subunit lacking the GBD (172–270). Complexes were expressed in CCL13 cells and purified by immunoprecipitation prior to assay with or without glycogen (200 mM glucose equivalents). Data are means ± SEM (n = 3). ^∗Activity different from control without glycogen by t test (p < 0.05). (D) Inhibition by bovine liver glycogen (200 mM glucose equivalents) of purified, native rat liver AMPK (a mixture of α1β1γ1 and α2β1γ1 complexes) that had been recovered by immunoprecipitation (IP) using anti-α1, anti-α2, or a mixture of anti-α1/-α2 antibodies or assayed in solution without immunoprecipitation. Results are expressed as percentages of the activity in controls without glycogen, and data are mean ± SEM (n = 3). (E) Absorption spectra of bovine and rat liver glycogen preparations in complex with iodine. […]
Purification of Native Rat Liver, AMPK, Recombinant AMPK, and AMPK Assays AMPK was purified from rat liver as far as the gel filtration step (Hawley et al., 1996). The kinase was assayed using the SAMS peptide (Davies et al., 1989). IC50 values for inhibition were estimated by fitting data using GraphPad Prism to the equation: Activity = Residual + Maximum - (Maximum × [Inhibitor]/(IC50+[Inhibitor])) where Residual is the activity in the presence of maximal inhibition, Maximum is the maximal inhibition and [inhibitor] is the concentration of the inhibitory molecule. For recombinant AMPK, constructs encoding myc-tagged α1, β1 and γ1 subunits of AMPK were co-transfected into CCL13 cells using modifications of previous methods (Woods et al., 1996). DNA (10 µg) was dissolved in sterile water (450 µl) to which 50 μl of 2.5 M CaCl2 was added, and the solution vortexed for 1 min. […]

[1] = molecular target: T1, rat AMPK-α1 kinase domain (Rattus norvegicus, UniProt P54645, T183D); experiment: kinase assay of bacterially expressed α1 kinase domain; type: biochemical; details: bacterially expressed (GST fusion; T172D mutant); data not shown
T1 construct: a bacterially expressed GST fusion of the rat AMPK-α1 kinase domain; GST; made in house; host or cells: bacteria

β1-GBD = molecular target: T2, β1-GBD (Rattus norvegicus, UniProt P80386); experiment: capture of glycogen hydrolysate fragments on GST-β1 GBD affinity column; type: binding; details: from partial acid hydrolysate of bovine liver glycogen; eluted with propionic acid
T2 construct: The rat β1 GBD (residues 70-172 was cloned into pGEX6P2, expressed in Escherichia coli (BL21)); made in house; host or cells: E. coli BL21
T2 sequence (P80386 70-172): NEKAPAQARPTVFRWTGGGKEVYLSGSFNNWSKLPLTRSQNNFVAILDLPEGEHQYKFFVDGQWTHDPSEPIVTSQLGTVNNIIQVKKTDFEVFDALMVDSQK
From the text: In an attempt to establish the chemical nature of the regions of glycogen that bind to the GBD and cause inhibition of the AMPK complex, we carried out partial acid hydrolysis of bovine liver glycogen and utilized the β1 GBD as an affinity matrix to purify hydrolysis products that bound to the GBD. The hydrolysis conditions were chosen to yield a range of oligosaccharides containing up to six glucose units, as detected by high-performance anion exchange chromatography (HPAEC). The hydrolysate was passed down a glutathione Sepharose column to which the GST-GBD had been prebound, and bound oligosaccharides eluted with propionic acid. The eluted oligosaccharides were analyzed by HPAEC (Figure 5A). […] That this disaccharide contained glucose was confirmed by collision-induced dissociation and tandem mass spectrometry (Figure 5B); the product ion spectrum contained a daughter peak at 203, corresponding to the mass of glucose plus one Na^+ ion. […]
To 60 μl of the material from HPAEC, 5 μl of 80% (v/v) acetonitrile plus 2% (v/v) formic acid was added. Small aliquots of this solution were transferred to Waters nanotips (Type F; Millipore, Watford, UK) and analyzed by electrospray ionization–mass spectrometry (ES-MS) in negative ion mode on an ABI Q-StarXL spectrometer (Applied Biosystems, Cambridge, UK). […]

T1 sequence (P54645 27-279 T183D): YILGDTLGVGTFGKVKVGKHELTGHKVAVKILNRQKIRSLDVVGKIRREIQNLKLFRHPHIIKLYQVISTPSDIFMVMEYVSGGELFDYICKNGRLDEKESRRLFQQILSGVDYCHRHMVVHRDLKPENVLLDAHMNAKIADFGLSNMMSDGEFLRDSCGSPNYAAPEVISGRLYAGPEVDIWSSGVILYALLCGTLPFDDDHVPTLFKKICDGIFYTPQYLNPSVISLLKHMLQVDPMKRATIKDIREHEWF
Sequence of native rat liver AMPK (P80386 2-270): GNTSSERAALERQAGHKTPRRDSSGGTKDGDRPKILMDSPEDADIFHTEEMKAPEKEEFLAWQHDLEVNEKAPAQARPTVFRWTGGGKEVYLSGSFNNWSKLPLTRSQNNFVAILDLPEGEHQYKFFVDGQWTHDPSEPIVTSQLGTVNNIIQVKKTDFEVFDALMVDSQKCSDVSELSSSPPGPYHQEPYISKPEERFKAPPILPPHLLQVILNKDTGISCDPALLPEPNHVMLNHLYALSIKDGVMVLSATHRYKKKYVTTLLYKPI
Sequence of native rat liver AMPK (P54645 whole entry partner): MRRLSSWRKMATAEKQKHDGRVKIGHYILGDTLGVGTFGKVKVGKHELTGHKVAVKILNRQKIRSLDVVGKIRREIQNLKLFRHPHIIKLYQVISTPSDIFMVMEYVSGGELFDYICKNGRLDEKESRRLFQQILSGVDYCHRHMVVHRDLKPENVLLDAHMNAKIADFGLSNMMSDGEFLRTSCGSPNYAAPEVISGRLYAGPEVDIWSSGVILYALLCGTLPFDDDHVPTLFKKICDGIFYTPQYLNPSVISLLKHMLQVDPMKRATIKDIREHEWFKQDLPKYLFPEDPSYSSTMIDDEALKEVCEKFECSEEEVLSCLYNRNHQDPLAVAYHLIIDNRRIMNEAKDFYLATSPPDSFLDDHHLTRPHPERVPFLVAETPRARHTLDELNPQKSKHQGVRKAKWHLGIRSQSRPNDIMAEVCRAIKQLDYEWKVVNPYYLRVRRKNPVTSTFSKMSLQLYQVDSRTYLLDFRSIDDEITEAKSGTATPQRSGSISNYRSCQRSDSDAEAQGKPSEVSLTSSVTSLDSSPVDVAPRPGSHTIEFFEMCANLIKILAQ
Sequence of native rat liver AMPK (Q09137 whole entry partner): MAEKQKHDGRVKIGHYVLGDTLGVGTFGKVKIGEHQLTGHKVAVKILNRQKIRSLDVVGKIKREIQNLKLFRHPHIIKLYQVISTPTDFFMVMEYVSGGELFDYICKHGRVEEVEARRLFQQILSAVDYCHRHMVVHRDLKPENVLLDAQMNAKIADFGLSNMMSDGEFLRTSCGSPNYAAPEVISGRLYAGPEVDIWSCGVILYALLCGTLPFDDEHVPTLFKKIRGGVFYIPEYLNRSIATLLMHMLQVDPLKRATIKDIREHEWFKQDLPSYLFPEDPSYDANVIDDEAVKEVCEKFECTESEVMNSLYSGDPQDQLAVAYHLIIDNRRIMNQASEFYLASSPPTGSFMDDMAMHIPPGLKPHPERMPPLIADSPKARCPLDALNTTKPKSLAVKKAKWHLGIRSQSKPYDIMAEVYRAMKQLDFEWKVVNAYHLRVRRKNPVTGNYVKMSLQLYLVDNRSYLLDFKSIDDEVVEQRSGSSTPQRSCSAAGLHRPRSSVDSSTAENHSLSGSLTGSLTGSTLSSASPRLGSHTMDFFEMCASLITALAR
Sequence of native rat liver AMPK (P80385 whole entry partner): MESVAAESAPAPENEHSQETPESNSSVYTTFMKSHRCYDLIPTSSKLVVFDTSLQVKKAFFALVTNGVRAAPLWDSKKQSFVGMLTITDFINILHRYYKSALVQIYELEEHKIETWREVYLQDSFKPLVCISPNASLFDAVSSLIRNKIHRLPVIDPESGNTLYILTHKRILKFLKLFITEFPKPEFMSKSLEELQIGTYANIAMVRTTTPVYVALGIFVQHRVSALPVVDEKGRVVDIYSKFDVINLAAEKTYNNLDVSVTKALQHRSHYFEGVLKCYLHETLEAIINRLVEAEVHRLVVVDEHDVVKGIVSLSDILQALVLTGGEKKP

In the case of `OC[C@H]1O[C@H](OC[C@H]2OC(O)[C@H](O)[C@@H](O)[C@@H]2O)[C@H](O)[C@@H](O)[C@@H]1O` (stereo partly drawn) [isomaltose], the IC50 (native rat liver AMPK) is reported as 16 mM, the “inhibition of isolated α1 kinase domain” value [1] is reported as “did not inhibit” and the “binding to immobilised β1-GBD” value (β1-GBD) is reported as “bound to the β1-GBD”.

Reference: publication PMC2642990, “The Glycogen-Binding Domain on the AMPK β Subunit Allows the Kinase to Act as a Glycogen Sensor” (Cell Metabolism, 2009)
